Reference: the NIST ThermoML archive (doi:10.1016/j.tca.2011.02.002)
Numbers after ± are expanded uncertainties.

Tests used:
[1] = excess molar enthalpy (molar enthalpy of mixing); xn = mol fraction of the nth substance listed; conditions: 308.15 K, 101 kPa, Liquid, 2-drop calorimeter (CSC 4600_
[2] = xn = mol fraction of the nth substance listed; conditions: 101 kPa, Liquid; for mass density: Vibrating tube method

Cc1cccnc1 [3-methylpyridine] + C1CCOCC1
[1]
Conditions	excess molar enthalpy [kcal/mol]
x2 = 0.0532	0.0059 ± 0.000311
x2 = 0.1118	0.0118 ± 0.000359
x2 = 0.1802	0.0181 ± 0.00043
x2 = 0.2238	0.0215 ± 0.000454
x2 = 0.2732	0.0248 ± 0.000478
x2 = 0.3311	0.0277 ± 0.000526
x2 = 0.3913	0.0298 ± 0.00055
x2 = 0.4461	0.0302 ± 0.00055
x2 = 0.4803	0.0304 ± 0.00055
x2 = 0.5365	0.0299 ± 0.00055
x2 = 0.5868	0.0293 ± 0.000526
x2 = 0.6344	0.0276 ± 0.000526
x2 = 0.6802	0.0249 ± 0.000502
x2 = 0.7355	0.0221 ± 0.000454
x2 = 0.7832	0.0184 ± 0.00043
x2 = 0.8326	0.0149 ± 0.000382
x2 = 0.8914	0.00963 ± 0.000335
x2 = 0.9336	0.00607 ± 0.000311

[2]
Conditions	mass density, 298.15 K [kg/m3]	mass density, 303.15 K [kg/m3]	mass density, 308.15 K [kg/m3]	speed of sound, 298.15 K [m/s]	speed of sound, 303.15 K [m/s]	speed of sound, 308.15 K [m/s]
x2 = 0	952.002 ± 1	947.449 ± 1	942.831 ± 0.99	1424 ± 2	1404 ± 2	1384 ± 2
x2 = 0.0562	948.099 ± 1	943.521 ± 1	938.854 ± 0.99	1415.9 ± 2	1395.6 ± 2	1375.6 ± 2
x2 = 0.0848	946.113 ± 1	941.519 ± 0.99	936.827 ± 0.99	1411.8 ± 2	1391.4 ± 2	1371.4 ± 2
x2 = 0.1357	942.576 ± 0.99	937.954 ± 0.99	933.219 ± 0.98	1404.5 ± 2	1383.9 ± 2	1363.8 ± 2
x2 = 0.1826	939.306 ± 0.99	934.651 ± 0.98	929.891 ± 0.98	1397.8 ± 2	1377.1 ± 2	1356.8 ± 2
x2 = 0.2461	934.857 ± 0.98	930.166 ± 0.98	925.361 ± 0.97	1388.8 ± 2	1367.8 ± 2	1347.2 ± 2
x2 = 0.2833	932.236 ± 0.98	927.522 ± 0.97	922.691 ± 0.97	1383.3 ± 2	1362.3 ± 2	1341.5 ± 2
x2 = 0.3345	928.61 ± 0.97	923.861 ± 0.97	919.004 ± 0.96	1375.8 ± 2	1354.5 ± 2	1333.6 ± 2
x2 = 0.3813	925.271 ± 0.97	920.499 ± 0.96	915.608 ± 0.96	1368.6 ± 2	1347.3 ± 2	1326.2 ± 2
x2 = 0.4262	922.049 ± 0.96	917.247 ± 0.96	912.336 ± 0.95	1361.8 ± 2	1340.3 ± 2	1319.2 ± 2
x2 = 0.4827	917.964 ± 0.96	913.129 ± 0.95	908.186 ± 0.95	1353 ± 2	1331.2 ± 2	1310.1 ± 2
x2 = 0.5378	913.951 ± 0.95	909.085 ± 0.95	904.106 ± 0.94	1344.3 ± 2	1322.4 ± 2	1301.2 ± 2
x2 = 0.5924	909.933 ± 0.95	905.038 ± 0.94	900.027 ± 0.94	1335.5 ± 2	1313.3 ± 2	1292.3 ± 2
x2 = 0.6382	906.545 ± 0.94	901.626 ± 0.94	896.591 ± 0.93	1328 ± 2	1305.7 ± 2	1284.7 ± 2
x2 = 0.6982	902.068 ± 0.94	897.114 ± 0.93	892.051 ± 0.92	1318.1 ± 2	1295.6 ± 2	1274.7 ± 2
x2 = 0.7568	897.664 ± 0.93	892.682 ± 0.92	887.584 ± 0.92	1308.6 ± 2	1285.8 ± 2	1264.9 ± 2
x2 = 0.8138	893.349 ± 0.93	888.335 ± 0.92	883.218 ± 0.91	1299.2 ± 2	1276.4 ± 2	1255.4 ± 2
x2 = 0.8825	888.124 ± 0.92	883.068 ± 0.91	877.926 ± 0.9	1288.2 ± 2	1265.1 ± 2	1243.9 ± 2
x2 = 0.9321	884.334 ± 0.91	879.246 ± 0.91	874.092 ± 0.9	1280.3 ± 2	1257.2 ± 2	1235.7 ± 2
